Experimental data taken from patent publication EP0420120A2, “Optically active benzyl alcohol compound and pharmaceutical composition” (HOKURIKU PHARMACEUTICAL CO., LTD., priority 1989, dated 1991).

Experiments:
[1] = system: isolated uterine smooth muscle; experiment: Effects on isolated uterine smooth muscle of rats (relaxation of oxytocin pre-contracted preparations); type: cell-based
Procedure: Non-pregnant female Wistar rats weighing about 200 g were killed and the uteruses were isolated. Each uterine preparation (15 mm in length) was mounted vertically in an organ bath containing modified Locke-Ringer solution of following composition: 150 mM NaCl, 5.4 mM KCl, 0.36 mM CaCl₂, 0.19 mM MgCl₂, 4.8 mM NaHCO₃, 0.15 mM KH₂ PO₄, 0.56 mM Na₂ HPO₄ and 2.8 mM Glucose. The bath medium was maintained at 37 °C and was equilibrated with a gas mixture consisting of 95% O₂ + 5% CO₂. The uterine preparations were pre-contracted with oxytocin (10 ⁻² U/ml) and the muscle relaxations induced by the test compounds were recorded isotonically. The test compounds were added cumulatively to the bath. ED₅₀ values for concentration-response curves which produce 50% relaxations of the maximal relaxations (10 ⁻⁶ M isoproterenol) were calculated.

isolated atrium = experiment: Effects on isolated atrium of guinea-pigs (spontaneous beating rate of right atrium); type: cell-based
Procedure: Male Hartley guinea-pigs weighing about 500 g were killed and the atria were isolated. Each right atrium was mounted vertically in an organ bath containing Krebs-Henseleit solution and the spontaneous beating rate was recorded. The bath medium was maintained at 30°C and was equilibrated with a gas mixture consisting of 95% O₂ + 5% CO₂. The test compounds were added cumulatively to the bath. ED₅₀ values for concentration-response curves which produce 50% increases of the basal spontaneous beating rate were calculated. The results are shown in Table 3 The selcctive relaxing activities of the compound of the present invention on the uterine and the bladder smooth muscle were compared with positive chronotropic effect in the atrium.

CC(C)(C)NCC(O)c1ccc(O)cc1Cl (single isomer, unassigned; (-)) [(-)-enantiomer, (-)-α -[(tert-Butylamino)methyl]-2-chloro-4-hydroxybenzyl alcohol]
effect relative to ritodrine ([1]; from the ED₅₀ values of Table 1, fold greater than ritodrine): ~25 fold
effect relative to the (+)-enantiomer ([1]; from the ED₅₀ values of Table 1, fold greater than the (+)-enantiomer): about 130 fold
Selectivity Bladder (isolated atrium; ED₅₀ value (positive chronotropic effect in the atrium) / ED₅₀ value (relaxing effect on the bladder smooth muscle)): 462
Selectivity Uterus (isolated atrium; ED₅₀ value (positive chronotropic effect in the atrium) / ED₅₀ value (relaxing effect on the uterine smooth muscle)): 21
